According to ChEMBL document CHEMBL5042510, “Structure-Guided Discovery of Aminoquinazolines as Brain-Penetrant and Selective LRRK2 Inhibitors” (J Med Chem, 2022):

How the values were obtained:
[1] = Unbound brain-to-plasma concentration ratio in non-human primates administered orally and measured after 120 mins by LC/MS/MS analysis; assay type: ADME; conditions: po, read-out: K(p,uu,brain)
[2] = Unbound brain-to-plasma concentration ratio in CD rat 1 to 100 mg/kg, po measured after 120 mins by LC/MS/MS analysis; assay type: ADME, organism-based; conditions: brain and plasma (unbound), dose 1-100 mg/kg, read-out: K(p,uu,brain)
[3] = In vivo inhibition of LRRK2 in CD rat assessed as reduction in phosphorylation at Ser935 residue in striatum at 10 mg/kg, po measured after 2 hrs by MSD assay; assay type: functional
[4] = Unbound brain-to-plasma concentration ratio in rat at 2.5 uM incubated for 4 hrs by equilibrium dialysis method; assay type: ADME, cell-free; conditions: brain and plasma (unbound), read-out: K(p,uu,brain)
[5] = test system: human MDR1 (P-gp); assay: Efflux ratio of apparent permeability across basolateral to apical side over apical to basolateral side in human MDR1-transfected dog MDCKII-MDR1 cells at 0.1 to 1 uM measured after 3 hrs by LC/MS/MS analysis; assay type: ADME, cell-based, Canis lupus familiaris; conditions: MDCK-MDR1, dose 0.1-1 µM
[6] = Unbound brain-to-plasma concentration ratio in non-human primates by positron emission tomography; assay type: ADME; conditions: brain and plasma (unbound), read-out: K(p,uu,brain)

| SMILES | Kp uu at 2 h [1] | Kp uu at 2 h [2] | inhibition in vivo at 10 mg/kg [3] [%] | Kp uu at 4 h, 2.5 µM [4] | efflux ratio at 3 h, up to 1 µM [5] | Kp uu [6] |
| --- | --- | --- | --- | --- | --- | --- |
| C[C@@H]1CN(c2cc(-c3n[nH]c4ccc(OC5(C)CC5)cc34)ncn2)C[C@H](C)O1 [MLi-2] | 0.37 | 0.7 | 93 | 0.49 |  |  |
| COc1cc2ncnc(Nc3cccc(Cl)c3F)c2cc1OC(=O)N1CCN(C)C[C@H]1C [AZD-3759] |  |  |  | 1.3 | 0.41 | 0.52 |
